Experimental data taken from the supplement of paper PMC10307832.

How the values were obtained:
Assay in all cases: relative viability (nuclei count vs DMSO), 5 days (fraction); higher = more cells survive
[1] = compound: Cc1nc(Nc2ncc(C(=O)Nc3c(C)cccc3Cl)s2)cc(N2CCN(CCO)CC2)n1 [Dasatinib] + C[C@]1(O)C[C@@H](c2nc(-c3ccc4ccc(-c5ccccc5)nc4c3)c3c(N)nccn32)C1 [Linsitinib] (partner 1 µM)
Procedure, shortened: (§1)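 The day after seeding in 1536-well plates, lung cancer cell lines were treated by pin tool with a single drug, or with a fixed anchor-drug dose together with five library-drug doses (not always all listed) in √10 steps. After 5 days, a combined fix-and-stain solution (final 0.05% Triton X-100, 1% formaldehyde, 1 ug/ml Hoechst) was added. Nuclei counted on 4× images gave relative viability as treated counts over vehicle counts, reported as the median of duplicate plates.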

[2] = compound: Cc1nc(Nc2ncc(C(=O)Nc3c(C)cccc3Cl)s2)cc(N2CCN(CCO)CC2)n1 [Dasatinib] + CS(=O)(=O)N1CCN(Cc2cc3nc(-c4cccc5[nH]ncc45)nc(N4CCOCC4)c3s2)CC1 [Pictilisib] (partner 1 µM)
Procedure, shortened: as §1

[3] = compound: Cc1ccc(C(=O)Nc2cccc(C(F)(F)F)c2)cc1Nc1cncc(C(N)=O)c1 [ALW-II-49-7] + Cc1nc(NC(=O)N2CCC[C@H]2C(N)=O)sc1-c1ccnc(C(C)(C)C(F)(F)F)c1 [Alpelisib] (partner 2 µM)
Procedure, shortened: as §1

[4] = compound: C1CC1C(=O)NC2=NNC3=C2C=CC(=C3)C4=CC(=CC=C4)C(=O)NC5CC5 [XMD13-2] + CS(=O)(=O)CCNCc1ccc(-c2ccc3ncnc(Nc4ccc(OCc5cccc(F)c5)c(Cl)c4)c3c2)o1 [Lapatinib] (partner 2 µM)
Procedure, shortened: as §1

Cell Line	relative viability ([1]; first compound 0.005 µM)	relative viability ([1]; first compound 0.01581 µM)	relative viability ([1]; first compound 0.05 µM)	relative viability ([1]; first compound 0.1581 µM)	relative viability ([1]; first compound 0.5 µM)	relative viability ([2]; first compound 0.005 µM)	relative viability ([2]; first compound 0.01581 µM)	relative viability ([2]; first compound 0.05 µM)	relative viability ([2]; first compound 0.1581 µM)	relative viability ([2]; first compound 0.5 µM)	relative viability ([3]; first compound 0.08 µM)	relative viability ([3]; first compound 0.253 µM)	relative viability ([3]; first compound 0.8 µM)	relative viability ([3]; first compound 2.53 µM)	relative viability ([3]; first compound 8 µM)	relative viability ([4]; first compound 0.05 µM)	relative viability ([4]; first compound 0.1581 µM)	relative viability ([4]; first compound 0.5 µM)	relative viability ([4]; first compound 1.581 µM)	relative viability ([4]; first compound 5 µM)
NCI-H1666	0.806	0.595	0.788	0.464	0.288	0.546	0.442	0.522	0.295	0.316	1.05	1.07	0.853	0.951	0.868	0.63	0.666	0.979	0.719	0.441
NCI-H1703	0.139	0.29	0.247	0.0903	0.144	0.2	0.195	0.203	0.179	0.169	0.331	0.322	0.258	0.297	0.182	1.38	1.4	1.17	0.842	0.72
NCI-H1734	0.678	0.693	0.64	0.394	0.331	0.367	0.362	0.355	0.307	0.229	0.645	0.774	0.657	0.694	0.577	1.28	0.995	0.735	0.935	0.85
NCI-H1755	0.795	0.743	0.642	0.391	0.171	0.317	0.21	0.191	0.182	0.139	0.931	0.965	0.909	0.807	0.818	1.08	1.09	1.07	1	1.09
NCI-H1792	0.491	0.355	0.377	0.219	0.0845	0.317	0.222	0.234	0.128	0.0699	0.512	0.459	0.586	0.504	0.473	1.1	0.873	0.951	0.777	1.06
NCI-H1793	0.524	0.644	0.553	0.506	0.472	0.316	0.395	0.29	0.311	0.31	0.717	0.673	0.752	0.716	0.884	0.885	0.609	1.03	0.601	0.826
NCI-H1915	1.11	1.03	0.921	0.488	0.288	0.936	0.84	0.763	0.463	0.231	1.1	1.13	1.08	0.978	0.731	1.07	1.01	1	1	0.94
NCI-H1944	1.15	1.34	0.787	0.419	0.276	0.308	0.274	0.274	0.258	0.268	0.817	0.836	0.807	0.916	0.941	1.01	0.726	0.95	1.06	0.746
NCI-H1975	0.86	0.713	0.851	0.286	0.243	0.315	0.225	0.207	0.0981	0.201	0.534	0.62	0.641	0.662	0.485	0.968	0.922	0.991	1.01	1.01
NCI-H1993	0.61	0.756	0.675	0.629	0.597	0.923	0.682	0.723	0.776	0.866	0.691	0.644	0.671	0.72	0.688	0.904	0.87	0.931	0.765	0.706
NCI-H2009	1.21	1.02	1.23	0.821	0.193	0.705	0.503	0.41	0.193	0.124	1.12	1.09	1.12	0.957	0.825	0.914	1.03	1.16	0.894	0.519
NCI-H2023	0.439	0.384	0.426	0.329	0.188	0.21	0.142	0.202	0.173	0.151	0.66	0.575	0.657	0.641	0.677	0.932	0.739	0.835	0.724	0.3
NCI-H2085	0.773	0.789	0.644	0.232	0.172	0.399	0.31	0.242	0.218	0.167	1.03	0.903	0.971	0.895	1.01	0.821	0.776	0.87	0.809	0.699
NCI-H2087	0.929	0.772	1.04	0.862	0.469	0.952	1.01	1.17	0.737	0.494	1.26	1.1	1.09	0.973	0.996	1.06	1.48	1.01	1.23	0.737
NCI-H2126	0.636	0.582	0.589	0.422	0.264	0.512	0.446	0.443	0.387	0.288	0.713	0.723	0.726	0.763	0.738	0.728	0.767	0.792	0.706	0.765
NCI-H2228	0.629	0.593	0.649	0.326	0.215	0.361	0.289	0.273	0.215	0.212	0.647	0.649	0.866	0.75	0.769	1.42	1.19	1.05	1.23	0.426
